The IC50 is the point on the concentration scale where inhibition reaches its midpoint. Broadly, the inhibition is the change of the read-out against control, counted positive when it falls.

The source of these data is patent US9381182B2, “Anthranilic acid derivatives: novel inhibitors of advanced glycation end-products (AGEs) formation” (priority 2013, dated 2016).

Data set [1] deals with T1, Human serum albumin (HSA) glycation by fructose (AGE-HSA) (Homo sapiens, UniProt P02768).
T1 construct: purchased Sigma Aldrich, St. Louis, Mo., USA
Put plainly: In-vitro antiglycation activity against HSA glycation (fluorescence-based antiglycation assay). The class given is biochemical. The following applies: for inhibition at 1000 µM: read-out: Antiglycation Activity % Inhibition. As to the method: Methodology: Human serum albumin (HSA) free from essential fatty acids and rutin were obtained from Sigma Aldrich, St. Louis, Mo., USA. D-fructose, sodium azide (NaN3) and dimethyl sulfoxide (DMSO) were acquired from Merck, Darmstadt, Germany. All solutions were prepared in sterile environment in deionized water at room temperature.
Assay Method: The assay was performed according the protocol of (Sattarahmady N, et al., 2007) with a little modification. […] Each sample solution (200 μL, final reaction volume) in triplicate loaded a 96-wll black fluorescence plate and was incubated for a week at 37° C. in an incubator.

Data set [2] in a line: MTT-based cytotoxicity assay. As to conditions: mouse, 3T3 mouse fibroblast cells, 3T3 cell-line, read-out: Cytotoxicity % Inhibition. The text has this: Many studies have highlighted the contribution of AGEs in disease states and primarily investigated their deleterious effects and their possible mechanism of actions. Therefore, there is a need of synthesis and investigation of novel antiglycation agents, which are devoid of any adverse effects, may present a therapeutic approach for the delaying and treatment of premature aging and vascular abnormalities in diabetic patients. In the current study, we explored the novel antiglycation agents (1-18), which are potent inhibitors against the glycation process, and belong to anthranilic acid derivatives. The inhibitors were identified by using high throughput screening method, fluorescence-based antiglycation assay (see Table-1). The cytotoxicity studies were performed against mouse fibroblast cell-line (3T3 Cell-line) by employing MTT-based cytotoxicity assay. The mechanistic studies were also conducted to evaluate the effect of novel antiglycation inhibitors on AGEs-induced intracellular reactive oxygen species generation (ROS) and associated impaired proliferation in rat hepatocytes via dichlorofluorescin diacetate (DCFH-DA) and MTT-based cytotoxicity assay, respectively. Previously, these novel antiglycation inhibitors were known for anticancer and anti-inflammatory activities (Congiu C, et al., 2005).
In general terms: Tetrazolium assays rely on reduction of a dye to a coloured formazan, in cell work by metabolically active cells.

Data set [3] deals with rat hepatocytes (CC1-Cell line). Put plainly: Fructose-derived AGE-mediated intracellular ROS generation, DCFH-DA technique. The following applies: no test compound, 24 hours. The format is cell-based. As to the method: Methodology: DCFH-DA (Dichlorofluorescin diacetate), H2O2 (Hydrogen peroxide), DMSO (Dimethyl sulfoxide) and PBS (Phosphate buffer saline) were obtained from Sigma, St. Louis, Mo., USA. 96-well black fluorescence plates (Tissue culture treated) were purchased from Thermo Fisher Scientific, Waltham, Mass., USA.
Assay Method: Briefly, rat hepatocytes (CC1-Cell line, 6×10^4 cells/mL) were loaded on a black fluorescence 96-well tissue culture treated plate for 24 hours at 37° C. in an incubator, containing 5% CO2. The cells were serum starved for another 24 hours by adding serum free medium-MEM (minimum essential medium) prior to treatment with fructose-derived AGE and the test compounds, anthranilic acid derivatives. Initially the cells were treated with non fluorescent probe, DCFH-DA (10 μM) in the dark for 45 mins. Following incubation the cells were washed twice with 1×PBS and were treated with different concentrations of the AGEs, such as 0, 50, 100, and 200 μg/mL, to evaluate the AGEs influence on the generation of intracellular ROS in a concentration dependent manner. The cells were then treated with the test compounds (novel anthranilic acid derivatives) at various concentrations 24, 33, and 49 μM, co-incubated with the AGE (200 μg/mL) for 24 hours at 37° C. At the end of the incubation, just before 1 hour, the cells were incubated with H2O2 (0.5%) as a control.
Fluorescence Detection: The intensity of green fluorescence, which is emitted upon the oxidation of the probe in the presence of intracellular ROS, is measured at the excitation and emission wavelength of 490 nm and 520 nm, respectively, by Spectra Max Spectrophotometer, Applied Biosystems, CA, USA.
Where, • Test compound=anthranilic acid derivative • Blank=Untreated normal rat hepatocytes • Control=Hepatocytes treated with 0.5% H2O2

The mark [4] stands for this setting: read-out: Antiglycation Activity IC50 ± SEM.

Where two headings read alike, the source gives them in different places.

T1 sequence (P02768 25-609): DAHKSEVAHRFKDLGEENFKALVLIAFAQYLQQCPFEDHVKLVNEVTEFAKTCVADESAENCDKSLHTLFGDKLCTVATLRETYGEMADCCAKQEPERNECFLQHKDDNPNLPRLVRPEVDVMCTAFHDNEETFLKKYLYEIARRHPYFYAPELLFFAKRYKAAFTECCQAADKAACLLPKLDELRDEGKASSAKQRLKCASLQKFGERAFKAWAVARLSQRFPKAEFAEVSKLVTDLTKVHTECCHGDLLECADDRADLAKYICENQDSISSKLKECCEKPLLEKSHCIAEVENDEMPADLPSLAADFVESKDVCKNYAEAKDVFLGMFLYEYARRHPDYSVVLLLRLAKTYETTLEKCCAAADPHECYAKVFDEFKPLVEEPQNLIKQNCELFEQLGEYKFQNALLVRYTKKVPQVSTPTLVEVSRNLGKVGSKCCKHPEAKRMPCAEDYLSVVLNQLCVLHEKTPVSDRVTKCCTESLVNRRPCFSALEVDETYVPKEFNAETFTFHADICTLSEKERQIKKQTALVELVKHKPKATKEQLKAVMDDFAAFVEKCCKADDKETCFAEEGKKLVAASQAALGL

Regarding `O=C(O)c1ccccc1Nc1cc(Cl)c([N+](=O)[O-])cc1Cl` [Compound 14, 2-(2,5-Dichloro-4-nitroanilino)benzoic acid], in data set [1], the concentration for half-maximal inhibition (IC50) stood at 84.8 ± 0.003 µM and the inhibition at 1000 µM is 88.8%. Also, the cytotoxicity in data set [2] stood at 29.6%.
In the case of `CCCCc1ccc(Nc2ccccc2C(=O)O)cc1` [Compound 12, 2-(4-Butylanilino)benzoic acid], in data set [1], 407 ± 0.01 µM corresponded to half-maximal inhibition (IC50) and the inhibition at 1000 µM is 70%. Further, the cytotoxicity in data set [2] was 17.3%.
In the case of `O=C(O)c1ccccc1Nc1ccccc1Cl` [Compound 6, 2-(2-Chloroanilino)benzoic acid], in data set [1], half-maximal inhibition (IC50) required 426 ± 0.017 µM and the inhibition at 1000 µM was 68%. In data set [2], the cytotoxicity came out at 0.9%.
For `Cc1cc(C)cc(Nc2ccccc2C(=O)O)c1` [Compound 13, 2-(3,5-Dimethylanilino)benzoic acid] the same measures were 457 ± 0.019 µM, 65% and 4.8%.
For `COc1cccc(Nc2ccccc2C(=O)O)c1` [Compound 18, 2-(3-Methoxyanilino)benzoic acid] the same measures were 398 ± 0.007 µM, 71% and 7.1%.
In the case of `O=C(O)c1ccccc1Nc1cc(Cl)ccc1[N+](=O)[O-]` [Compound 17, 2-(5-Chloro-2-nitroanilino)benzoic acid], in data set [1], 150 ± 0.001 µM corresponded to half-maximal inhibition (IC50) and the inhibition at 1000 µM was found to be 78%. The cytotoxicity in data set [2] was found to be 1.5%.
For AGEs, the “Fluorescence (Average), ROS production” value in data set [3] (50 μg/mL) is 114.4; in data set [3] (100 μg/mL) it was 135.3; in data set [3] (200 μg/mL) it was 201.9.
For the compound `O=C(O)c1ccccc1Nc1cccc([N+](=O)[O-])c1` [Compound 16, 2-(3-Nitroanilino)benzoic acid], in data set [1], the inhibition at 1000 µM stood at 80%. Besides, the IC50 in data set [1] (setting [4]) amounted to 264 ± 0.013 µM. Further, the cytotoxicity in data set [2] stood at 4.1%.
In the case of `O=C(O)c1ccccc1Nc1cc([N+](=O)[O-])ccc1Cl` [Compound 9, 2-(2-Chloro-5-nitroanilino)benzoic acid], in data set [1], half-maximal inhibition (IC50) required 314 ± 0.01 µM and the inhibition at 1000 µM stood at 79.4%. Besides, the cytotoxicity in data set [2] stood at 3%.
On to `O=C(O)c1ccccc1Nc1ccc(Cl)c([N+](=O)[O-])c1` [Compound 4, 2-(4-Chloro-3-nitroanilino)benzoic acid], for which, in data set [1], the IC50 worked out at 266 ± 0.01 µM and the inhibition at 1000 µM was 68.9%. In addition, in data set [2], the cytotoxicity is 19.7%.
`C[C@@H]1O[C@@H](OC[C@H]2O[C@@H](Oc3c(-c4ccc(O)c(O)c4)oc4cc(O)cc(O)c4c3=O)[C@H](O)[C@@H](O)[C@@H]2O)[C@H](O)[C@H](O)[C@H]1O` [rutin, reference compound]: the concentration for half-maximal inhibition (IC50) in data set [1] (setting [4]) was determined as 70 ± 0.5 µM.
As for `O=C(O)c1ccccc1Nc1ccc(Cl)c(Cl)c1` [Compound 11, 2-(3,4-Dichloroanilino)benzoic acid], in data set [1], the midpoint of inhibition, the IC50, lay at 597 ± 0.021 µM and the inhibition at 1000 µM was found to be 62%. Also, in data set [2], the cytotoxicity was 40.1%.
Take `O=C(O)c1ccccc1Nc1cc(Cl)cc([N+](=O)[O-])c1` [Compound 7, 2-(3-Chloro-5-nitroanilino)benzoic acid]: in data set [1], the IC50 came to 166 ± 0.017 µM and the inhibition at 1000 µM was 84.4%. The cytotoxicity in data set [2] came out at 13%.
Consider `O=C(O)c1ccccc1Nc1ccc(F)cc1F` [Compound 10, 2-(2,4-Difluoroanilino)benzoic acid], for which, in data set [1], the IC50 was 558 ± 0.066 µM and the inhibition at 1000 µM was found to be 63%. Moreover, the cytotoxicity in data set [2] is 1.1%.
For `O=C(O)c1ccccc1Nc1cc(Cl)ccc1Cl` [Compound 15, 2-(2,5-Dichloroanilino)benzoic acid], in that order: 678 ± 0.047 µM, 62% and 1.6%.
On to `O=C(O)c1ccccc1Nc1ccc(Cl)cc1` [Compound 5, 2-(4-Chloroanilino)benzoic acid], for which, in data set [1], the IC50 amounted to 298 ± 0.015 µM and the inhibition at 1000 µM was determined as 62%. For the same compound, in data set [2], the cytotoxicity worked out at 41.3%.
For the compound `Cc1ccc(Cl)cc1Nc1ccccc1C(=O)O` [Compound 8, 2-(5-Chloro-2-methylanilino)benzoic acid], in data set [1], the IC50 came out at 408 ± 0.03 µM and the inhibition at 1000 µM turned out to be 69%. In addition, the cytotoxicity in data set [2] amounted to 3.2%.
Regarding `COc1cc(OC)c(Nc2ccccc2C(=O)O)cc1Cl` [Compound 3, 2-(5-Chloro-2,4-dimethoxyanilino)benzoic acid], in data set [1], half-maximal inhibition (IC50) required 266 ± 0.016 µM and the inhibition at 1000 µM was 75.1%. In addition, the cytotoxicity in data set [2] was 22.4%.
For `O=C(O)c1ccccc1Nc1ccc(Cl)cc1[N+](=O)[O-]` [Compound 2, 2-(4-Chloro-2-nitroanilino)benzoic acid], in that order: 137 ± 0.002 µM, 82% and 5.6%.
